The assay concerns IL-5 production in human blood. In words: In vitro inhibition of IL-5 production in human blood (phytohemagglutinin-stimulated whole blood, ELISA). It is filed as cell-based. Conditions: test dose 1×10^−6 M, phytohemagglutinin 2 μg/ml, 48 hours; for inhibition at 1 µM: read-out: % inh. (percentage inhibition of IL-5 production). The method, then: EXAMPLE C.1: IN VITRO INHIBITION OF IL-5 PRODUCTION IN HUMAN BLOOD
Peripheral blood from healthy male donors was drawn into heparinized syringes (12.5 U heparin/ml). Blood samples were three-fold diluted in RMPI 1640 medium (Life Technologies, Belgium) supplemented with 2 mM L-glutamine, 100 U/ml penicillin and 100 μg/ml streptomycin, and 300 μl fractions were distributed in 24-well multidisc plates. Blood samples were preincubated (60 minutes at 37° C.) in a humidified 6% CO2-atmosphere with 100 μl of drug solvent (final concentration 0.02% dimethylsulfoxide in RPMI 1640) or with 100 μl of an appropriate dose of test compound before being stimulated by the addition of 100 μl of phytohemagglutinin HA17 (Murex, UK) at a final concentration of 2 μg/ml. After 48 hours, cell-free supernatant fluids were collected by centrifugation and stored at −70° C. until tested for the presence of IL-5.
IL-5 measurements were conducted as described in Van Wauwe et al. (1996, Inflamm Res, 45, 357-363) on page 358 using ELISA.
Table 6 lists the percentage inhibition of IL-5 production (column “% inh”) at a test dose of 1×10^−6 M, or in case the percentage inhibition is marked with an “*” 1×10^−5 M, for the compounds of the present invention.
For orientation: An ELISA detects its analyte on a solid surface through an enzyme-linked reagent.

The structures appear in SMILES notation.

Usually inhibition stands for how much of the control response was suppressed.

As for `CC(C)(c1nc(-c2ccccc2)c(Cc2ccccc2)s1)c1c(Cl)cc(-n2ncc(=O)[nH]c2=O)cc1Cl` [Compound 43, 2-[3,5-dichloro-4-[1-methyl-1-[4-phenyl-5-(phenylmethyl)-2-thiazolyl]ethyl]phenyl]-1,2,4-triazine-3,5(2H,4H)-dione], the inhibition at 1 µM amounted to 86%.
As to `COCc1cccc(-c2nc(C(C)(C)c3c(Cl)cc(-n4ncc(=O)[nH]c4=O)cc3Cl)sc2C)c1` [Compound 44], the “% inh. (percentage inhibition of IL-5 production)” value stood at 81%.
With `CC(C)(c1nc(-c2ccccc2)c(CCc2ccccc2)s1)c1c(Cl)cc(-n2ncc(=O)[nH]c2=O)cc1Cl` [Compound 45], the “% inh. (percentage inhibition of IL-5 production)” value was 85%.
Same read-out and setting: as for `CC(C)(c1nc(-c2ccccc2Cl)c(C=O)s1)c1c(Cl)cc(-n2ncc(=O)[nH]c2=O)cc1Cl` [Compound 46], the figure is 44%; as for `CCc1sc(C(C)(C)c2c(Cl)cc(-n3ncc(=O)[nH]c3=O)cc2Cl)nc1-c1ccc(-c2ccccc2)cc1` [Compound 48], 58%; as for `CC(C)(c1nc(-c2ccccc2)c(-c2cccc([N+](=O)[O-])c2)s1)c1c(Cl)cc(-n2ncc(=O)[nH]c2=O)cc1Cl` [Compound 49], 95%.
Take `CC(C)(c1nc(-c2ccccc2)c(-c2cccc(N)c2)s1)c1c(Cl)cc(-n2ncc(=O)[nH]c2=O)cc1Cl` [Compound 50, 2-[4-[1-[5-(3-aminophenyl)4-phenyl-2-thiazolyl]-1-methylethyl]-3,5-dichlorophenyl]-1,2,4-triazine-3,5(2H,4H)-dione]: the inhibition at 1 µM amounted to 91%.
For the compound `CC(=O)Nc1cccc(-c2sc(C(C)(C)c3c(Cl)cc(-n4ncc(=O)[nH]c4=O)cc3Cl)nc2-c2ccccc2)c1` [Compound 51, N-[3-[2-[1-[2,6-dichloro-4-(4,5-dihydro-3,5-dioxo-1,2,4-triazin-2(3H)-yl)phenyl]-1-methylethyl]4-phenyl-5-thiazolyl]phenyl]-acetamide], the inhibition at 1 µM was found to be 73%.
Same read-out and setting: the figure for `CC(C)(c1nc(-c2ccccc2)c(-c2cccc(NC(N)=O)c2)s1)c1c(Cl)cc(-n2ncc(=O)[nH]c2=O)cc1Cl` [Compound 54, N-[3-[2-[1-[2,6-dichloro-4-(4,5-dihydro-3,5-dioxo-1,2,4-triazin-2(3H)-yl)phenyl]-1-methylethyl]-4-phenyl-5-thiazolyl]phenyl]urea] is 61%.
`COc1cccc(-c2sc(C(C)(C)c3c(Cl)cc(-n4ncc(=O)[nH]c4=O)cc3Cl)nc2-c2ccccc2)c1` [Compound 55]: the “% inh. (percentage inhibition of IL-5 production)” value stood at 92%.
Take `CC(C)(c1nc(-c2ccccc2Cl)c(-c2cccc(C(=O)O)c2)s1)c1c(Cl)cc(-n2ncc(=O)[nH]c2=O)cc1Cl` [Compound 56]: the “% inh. (percentage inhibition of IL-5 production)” value is given as −4%.
Same read-out and setting: as for `CC(C)(c1nc(-c2ccccc2Cl)c(-c2cccc(C#N)c2)s1)c1c(Cl)cc(-n2ncc(=O)[nH]c2=O)cc1Cl` [Compound 57], the figure is 85%.
`CC(C)(c1nc(-c2ccccc2)c(-c2cccc(O)c2)s1)c1c(Cl)cc(-n2ncc(=O)[nH]c2=O)cc1Cl` [Compound 58, 2-[3,5-dichloro-4-[1-[5-(3-hydroxyphenyl)4-phenyl-2-thiazolyl]-1-methyl-ethyl]phenyl]-1,2,4-triazine-3,5(2H,4H)-dione]: the inhibition at 1 µM worked out at 84%.
On the same count and under the same terms, the figure for `CC(C)(c1nc(-c2ccccc2Cl)c(-c2cccc(CO)c2)s1)c1c(Cl)cc(-n2ncc(=O)[nH]c2=O)cc1Cl` [Compound 59, 2-[3,5-dichloro-4-[1-[4-(2-chlorophenyl)-5-[3-(hydroxymethyl)phenyl]-2-thiazolyl]-1-methylethyl]phenyl]-1,2,4-triazine-3,5(2H,4H)-dione] is 82%.
Regarding `CC(C)(c1nc(-c2ccccc2)c(-c2cccc(NS(N)(=O)=O)c2)s1)c1c(Cl)cc(-n2ncc(=O)[nH]c2=O)cc1Cl` [Compound 60], the “% inh. (percentage inhibition of IL-5 production)” value was 28%.
Take `CN1CCN(C(=O)c2cccc(-c3sc(C(C)(C)c4c(Cl)cc(-n5ncc(=O)[nH]c5=O)cc4Cl)nc3-c3ccccc3Cl)c2)CC1` [Compound 61, 1-[3-[2-[1-[2,6-dichloro-4-(4,5-dihydro-3,5-dioxo-1,2,4-triazin-2(3H)-yl)phenyl]-1-methylethyl]-4-(2-chlorophenyl)-5-thiazolyl]benzoyl]-4-methylpiperazine]: the inhibition at 1 µM amounted to 29%.
Regarding `CC(C)(c1cc(Cl)c(-n2ncc(=O)[nH]c2=O)c(Cl)c1)c1nc(-c2ccccc2Cl)c(-c2cccc(C(N)=O)c2)s1` [Compound 62, 3-[2-[1-[3,5-dichloro-4-(4,5-dihydro-3,5-dioxo-1,2,4-triazin-2(3H)-yl)phenyl]-1-methylethyl]-4-(2-chlorophenyl)-5-thiazolyl]benzamide], the inhibition at 1 µM amounted to 53%.
Take `CC(C)OC(=O)c1cccc(-c2sc(C(C)(C)c3c(Cl)cc(-n4ncc(=O)[nH]c4=O)cc3Cl)nc2-c2ccccc2Cl)c1` [Compound 65]: the “% inh. (percentage inhibition of IL-5 production)” value is 36%.
On the same count and under the same terms, as for `CC(C)(c1nc(-c2ccccc2)c(-c2cccc(OS(N)(=O)=O)c2)s1)c1c(Cl)cc(-n2ncc(=O)[nH]c2=O)cc1Cl` [Compound 66, 3-[2-[1-[2,6-dichloro-4-(4,5-dihydro-3,5-dioxo-1,2,4-triazin-2(3H)-yl)phenyl]-1-methylethyl]-4-phenyl-5-thiazolyl]phenylsulfamate (ester)], the figure is 53%.
Same read-out and setting: the figure for `COCCNCc1cccc(-c2sc(C(C)(C)c3c(Cl)cc(-n4ncc(=O)[nH]c4=O)cc3Cl)nc2-c2ccccc2Cl)c1.Cl` [Compound 69] is 45%.
Take `CC(C)(c1nc(-c2ccccc2)c(-c2cccc(NC(=O)N3CCNCC3)c2)s1)c1c(Cl)cc(-n2ncc(=O)[nH]c2=O)cc1Cl` [Compound 71, N-[3-[2-[1-[2,6-dichloro-4-(4,5-dihydro-3,5-dioxo-1,2,4-triazin-2(3H)-yl)phenyl]-1-methylethyl]-4-phenyl-5-thiazolyl]-phenyl]-1-piperazinecarboxamide monohydrate]: the inhibition at 1 µM turned out to be 27%.
For `CC(C)(c1nc(-c2ccsc2)cs1)c1c(Cl)cc(-n2ncc(=O)[nH]c2=O)cc1Cl` [Compound 72, 2-[3,5-dichloro-4-[1-methyl-1-[4-(3-thienyl)-2-thiazolyl]ethyl]phenyl]-1,2,4-triazine-3,5(2H,4H)-dione], the inhibition at 1 µM amounted to 84%.
`CC(C)(c1nc(-c2ccc(Cl)s2)cs1)c1c(Cl)cc(-n2ncc(=O)[nH]c2=O)cc1Cl` [Compound 73]: the “% inh. (percentage inhibition of IL-5 production)” value is reported as 84%.
The same measure, in the same setting: as for `CC(C)(c1nc(-c2ccc([N+](=O)[O-])s2)cs1)c1c(Cl)cc(-n2ncc(=O)[nH]c2=O)cc1Cl` [Compound 74], the figure is 76%; as for `Cc1ccsc1-c1csc(C(C)(C)c2c(Cl)cc(-n3ncc(=O)[nH]c3=O)cc2Cl)n1` [Compound 75], 91%; as for `Cc1ccc(-c2csc(C(C)(C)c3c(Cl)cc(-n4ncc(=O)[nH]c4=O)cc3Cl)n2)s1` [Compound 76], 75%.
For the compound `CC(C)(c1nc(-c2ccc(Br)s2)cs1)c1c(Cl)cc(-n2ncc(=O)[nH]c2=O)cc1Cl` [Compound 77], the “% inh. (percentage inhibition of IL-5 production)” value was determined as 84%.
On the same count and under the same terms, as for `CC(C)(c1nc(-c2ccc(C#N)s2)cs1)c1c(Cl)cc(-n2ncc(=O)[nH]c2=O)cc1Cl` [Compound 78], the figure is 79%; as for `CC(C)(c1nc(-c2csc3ccccc23)cs1)c1c(Cl)cc(-n2ncc(=O)[nH]c2=O)cc1Cl` [Compound 79], 75%.
Take `CC(C)(c1nc(-c2ccc(N(S(C)(=O)=O)S(C)(=O)=O)s2)cs1)c1c(Cl)cc(-n2ncc(=O)[nH]c2=O)cc1Cl` [Compound 81, N-[5-[2-[1-[2,6-dichloro-4-(4,5-dihydro-3,5-dioxo-1,2,4-triazine-2(3H)-yl)phenyl]-1-methylethyl]-4-thiazolyl]-2-thienyl]-N-(methylsulfonyl)methanesulfonamide]: the inhibition at 1 µM was 34%.
For the compound `CC(C)(c1nc(-c2cccnc2)cs1)c1c(Cl)cc(-n2ncc(=O)[nH]c2=O)cc1Cl` [Compound 82], the “% inh. (percentage inhibition of IL-5 production)” value is reported as 85%.
In the case of `CC(C)(c1nc(-c2ccco2)cs1)c1c(Cl)cc(-n2ncc(=O)[nH]c2=O)cc1Cl` [Compound 83, 2-[3,5-dichloro-4-[1-[4-(2-furanyl)-2-thiazolyl]-1-methylethyl]phenyl]-1,2,4-triazine-3,5(2H,4H)-dione], the inhibition at 1 µM turned out to be 78%.
On to `CC(C)(c1nc(-c2ccc(-c3cccs3)s2)cs1)c1c(Cl)cc(-n2ncc(=O)[nH]c2=O)cc1Cl` [Compound 84], for which the “% inh. (percentage inhibition of IL-5 production)” value is 14%.
Still for that read-out and setting: the figure for `CC(C)(c1noc(-c2ccccc2F)n1)c1c(Cl)cc(-n2ncc(=O)[nH]c2=O)cc1Cl` [Compound 86] is 88%.
Turning to `Cc1ccccc1-c1nc(C(C)(C)c2c(Cl)cc(-n3ncc(=O)[nH]c3=O)cc2Cl)no1` [Compound 87, 2-[3,5-dichloro-4-[1-methyl-1-[5-(2-methylphenyl)-1,2,4-oxadiazol-3-yl]ethyl]phenyl]-1,2,4-triazine-3,5(2H,4H)-dione], the inhibition at 1 µM turned out to be 89%.

Values taken from patent US6894046B2, “IL-5 inhibiting 6-azauracil derivatives” (Janssen Pharmaceutica N.V., priority 1998, dated 2005).
